Data: PubChem BioAssay (NCI)
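Exposure lasted 48 hours, with cells grown in 96-well plates and compounds tested at five concentrations. TGI is the concentration that stops growth completely.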

Legend:
Assay in all cases: NCI anticancer screen, dose series, 48 h
[1] = tested on: SF-295 CNS
[2] = tested on: CCRF-CEM leukemia
[3] = tested on: HL-60(TB) leukemia
[4] = tested on: T-47D breast
[5] = tested on: SW-620 colon
[6] = tested on: HCT-15 colon
[7] = tested on: TK-10 renal
[8] = tested on: DU-145 prostate
[9] = tested on: CAKI-1 renal
[10] = tested on: PC-3 prostate
[11] = tested on: ACHN renal
[12] = tested on: SNB-75 CNS
[13] = tested on: UO-31 renal
[14] = tested on: RPMI-8226 leukemia
[15] = tested on: HOP-62 NSCLC
[16] = tested on: OVCAR-3 ovarian
[17] = tested on: UACC-62 melanoma
[18] = tested on: U251 CNS
[19] = tested on: SNB-19 CNS
[20] = tested on: UACC-257 melanoma
[21] = tested on: MCF7 breast
[22] = tested on: SK-MEL-2 melanoma
[23] = tested on: MOLT-4 leukemia
[24] = tested on: HCT-116 colon
[25] = tested on: OVCAR-8 ovarian
[26] = tested on: MDA-N
[27] = tested on: HS 578T breast
[28] = tested on: COLO 205 colon
[29] = tested on: A498 renal
[30] = tested on: NCI-H522 lung
[31] = tested on: SK-OV-3 ovarian
[32] = tested on: MDA-MB-231 breast
[33] = tested on: MDA-MB-435
[34] = tested on: M14 melanoma
[35] = tested on: SR leukemia
[36] = tested on: OVCAR-4 ovarian
[37] = tested on: NCI-H23 lung
[38] = tested on: NCI-H226 lung
[39] = tested on: 786-0 renal
[40] = tested on: HCC-2998 colon
[41] = tested on: HOP-92 NSCLC
[42] = tested on: SK-MEL-5 melanoma
[43] = tested on: K-562 leukemia
[44] = tested on: SK-MEL-28 melanoma
[45] = tested on: RXF 393 renal
[46] = tested on: NCI/ADR-RES ovarian
[47] = tested on: SF-268 CNS
[48] = tested on: EKVX NSCLC
[49] = tested on: LOX IMVI melanoma
[50] = tested on: A549 NSCLC
[51] = tested on: KM12 colon
[52] = tested on: HT29 colon
[53] = tested on: BT-549 breast
[54] = tested on: IGROV1 ovarian
[55] = tested on: SN12C renal
[56] = tested on: SF-539 CNS
[57] = tested on: NCI-H460 lung
[58] = tested on: MALME-3M melanoma
[59] = tested on: OVCAR-5 ovarian

`S=C1Cc2cc3ccccc3nc2-c2ccccc2N1` gave a TGI [1] of 42.2 µM, a TGI [2] greater than 100 µM and a TGI [3] greater than 100 µM. For the same compound, the TGI [4] was 28.7 µM, the TGI [5] was greater than 70.4 µM and the TGI [6] was greater than 87.3 µM. The TGI [7] was 44.6 µM, the TGI [8] was greater than 100 µM and the TGI [9] was 54.5 µM. It also gave a TGI [10] of 80.7 µM, a TGI [11] of 41.4 µM and a TGI [12] of 17.5 µM. For the same compound, the TGI [13] was 24.1 µM, the TGI [14] was greater than 100 µM and the TGI [15] was 30.7 µM. It also gave a TGI [16] of 27.9 µM, a TGI [17] of 25.7 µM and a TGI [18] of 28.3 µM. It also gave a TGI [19] greater than 47.4 µM, a TGI [20] of 65.5 µM and a TGI [21] greater than 79 µM. The TGI [22] was 61.8 µM, the TGI [23] was greater than 100 µM and the TGI [24] was 30.8 µM. The TGI [25] was 31.2 µM, the TGI [26] was greater than 100 µM and the TGI [27] was greater than 63.7 µM. For the same compound, the TGI [28] was greater than 100 µM, the TGI [29] was 18.6 µM and the TGI [30] was 43.1 µM. It also gave a TGI [31] of 15.4 µM, a TGI [32] of 27 µM and a TGI [33] greater than 68.2 µM. For the same compound, the TGI [34] was greater than 64.2 µM, the TGI [35] was greater than 100 µM and the TGI [36] was greater than 40.4 µM. It also gave a TGI [37] of 41.6 µM, a TGI [38] of 46.9 µM and a TGI [39] of 28.4 µM. For the same compound, the TGI [40] was 36 µM, the TGI [41] was 20.2 µM and the TGI [42] was greater than 100 µM. It also gave a TGI [43] greater than 100 µM, a TGI [44] greater than 59.1 µM and a TGI [45] of 24.9 µM. For the same compound, the TGI [46] was 29 µM, the TGI [47] was 91.6 µM and the TGI [48] was 79.2 µM. The TGI [49] was greater than 69.8 µM, the TGI [50] was greater than 64.8 µM and the TGI [51] was greater than 100 µM. It also gave a TGI [52] greater than 100 µM, a TGI [53] greater than 59.1 µM and a TGI [54] of 65.1 µM. It also gave a TGI [55] of 32.6 µM, a TGI [56] of 29.4 µM and a TGI [57] greater than 51.2 µM. It also gave a TGI [58] of 47.6 µM and a TGI [59] greater than 91.9 µM.

In the case of `O=c1oc2ccccc2c(O)c1/C=N\c1nc(-c2ccc(O)c(O)c2)cs1`, the TGI [1] was greater than 100 µM, the TGI [2] was 4.58 µM and the TGI [3] was 8.31 µM. It also gave a TGI [4] of 32 µM, a TGI [5] of 9.64 µM and a TGI [6] of 14.9 µM. It also gave a TGI [7] of 10.7 µM, a TGI [8] of 17.9 µM and a TGI [9] of 16.5 µM. The TGI [10] was 10.6 µM, the TGI [11] was 9.77 µM and the TGI [12] was 15.4 µM. For the same compound, the TGI [13] was 9.24 µM, the TGI [14] was 5.3 µM and the TGI [15] was 31.2 µM. For the same compound, the TGI [16] was 5.94 µM, the TGI [17] was 16.9 µM and the TGI [18] was 17.3 µM. It also gave a TGI [19] of 39.1 µM, a TGI [20] of 10.3 µM and a TGI [21] of 17.4 µM. For the same compound, the TGI [22] was 7.04 µM, the TGI [23] was 3.34 µM and the TGI [24] was 7.61 µM. For the same compound, the TGI [25] was greater than 100 µM, the TGI [26] was 18.8 µM and the TGI [27] was greater than 80.8 µM. It also gave a TGI [28] of 6.76 µM, a TGI [29] greater than 46.7 µM and a TGI [30] of 5.29 µM. It also gave a TGI [31] of 21.4 µM, a TGI [32] of 18.7 µM and a TGI [33] of 20.4 µM. For the same compound, the TGI [34] was 10.3 µM, the TGI [35] was 4.43 µM and the TGI [36] was 27.5 µM. For the same compound, the TGI [37] was 9.87 µM, the TGI [38] was 42.2 µM and the TGI [39] was 10.2 µM. The TGI [40] was 16.3 µM, the TGI [41] was 28.5 µM and the TGI [42] was 16.9 µM. For the same compound, the TGI [43] was 10.4 µM, the TGI [44] was 24.1 µM and the TGI [45] was 18.1 µM. It also gave a TGI [46] greater than 72.2 µM, a TGI [47] of 22.1 µM and a TGI [48] of 28.4 µM. The TGI [49] was 14.7 µM, the TGI [50] was 26.6 µM and the TGI [51] was 29.6 µM. For the same compound, the TGI [52] was 23.6 µM, the TGI [53] was 25.8 µM and the TGI [54] was 23.9 µM. It also gave a TGI [55] of 15.6 µM, a TGI [56] of 12.5 µM and a TGI [57] of 14.3 µM. It also gave a TGI [58] of 9.17 µM and a TGI [59] of 31.9 µM.
